# Results from paper PMC9090415, “Discovery of small molecule inhibitors of Plasmodium falciparum apicoplast DNA polymerase” (Journal of Enzyme Inhibition and Medicinal Chemistry, 2022).
# Target: P. falciparum apicoplast DNA polymerase (Pf-apPOL) (Plasmodium falciparum, UniProt Q8ILY1)
# Experiment: Fluorescence-based high-throughput DNA polymerase assay (molecular beacon), primary screen and dose-response
# Format: biochemical
# Method: The HT assay employs a molecular beacon, a stem-loop DNA template with a Cy3 dye and the Black Hole Quencher on the 3′ and 5′ ends of the DNA, respectively. Pf-apPOL concentration is based on a calculated absorptivity of ε280 = 56750 M^−1 cm^−1. Reactions were carried out at 25 °C, using Corning 3575 […] (well-volume, 20 µL). Assays testing for compound inhibition composed of reaction buffer (pH 7.9 in 50 mM potassium acetate, 20 mM Tris-acetate and 10 mM magnesium acetate), Pf-apPOL (20 nM), DNA substrate (20 nM), dNTPs (6 µM), and compound (10 µM in DMSO). The DNA and nucleotide substrates (dNTPs) were at concentrations of 20 nM and 6 µM, respectively, in the assay. Pf-apPOL was incubated in the reaction buffer with dNTPs and the compound of interest (10 µM, in the assay) at 25 °C for 10 min. The DNA substrate was then added and the reaction was allowed to proceed for 90 min at 25 °C.
# Each assay plate contained 16 negative controls (no Pf-apPOL, DMSO present) and 16 positive controls (Pf-apPOL present, no DMSO). The fluorescence of each well was determined using a BioTek Synergy Neo fluorescence plate reader using excitation and emission wavelengths of 555 and 570 nm, respectively.
# In the above, Min is the average of fluorescence emission of the negative controls (substrate only), Max the average fluorescence emission from the positive controls (enzyme + substrate), and Test the emission from the assays in the presence of compounds (enzyme + compound + substrates). […] […] The IC50 of each compound was determined using Equation (2): (2) IC50= Vmax/(1+ (I/IC50)^n)
# In the above, n measures cooperativity, with n > 1 indicating synergistic binding of more than a single molecule of the compound.
# To identify apPOL inhibitors we utilised our previously developed high-throughput DNA polymerase assay. The HT assay is based on a molecular beacon DNA template that forms a stem-loop with a Cy3 dye and the Black Hole Quencher on the 3′ and 5′ ends of the DNA, respectively. DNA polymerase activity extends an annealed primer through the stem region, displacing the fluorophore from the quencher, thereby increasing its fluorescence (Figure 1(A)). The assay accurately recapitulates the kinetic behaviour of apPOL, as measured through more conventional low-throughput gel-based assays. The Z′ factor for the assay described here was 0.9 across all plates (data not shown).
# Figure 1. High-throughput screening. (A) The fluorescent-based DNA polymerase assay used to screen the compound libraries. The DNA template strand is a hairpin loop with a primer annealed to the loop. The 3’ end of the primer is 11 bases away from the 6 bp duplex. Strand displacement activity of the DNA polymerase separates the Cy3 dye from the Black hole quencher leading to an increase in fluorescent signal. (B) The high-throughput assay workflow. The DNA polymerase is incubated with […] compound for 10 min prior to addition of the hairpin substrate. The reaction is quenched at 3 different time points and the fluorescent signal is measured and % inhibition is determined using the provided equation.
# Sequence of P. falciparum apicoplast DNA polymerase (Pf-apPOL) (Q8ILY1 entry or part of it): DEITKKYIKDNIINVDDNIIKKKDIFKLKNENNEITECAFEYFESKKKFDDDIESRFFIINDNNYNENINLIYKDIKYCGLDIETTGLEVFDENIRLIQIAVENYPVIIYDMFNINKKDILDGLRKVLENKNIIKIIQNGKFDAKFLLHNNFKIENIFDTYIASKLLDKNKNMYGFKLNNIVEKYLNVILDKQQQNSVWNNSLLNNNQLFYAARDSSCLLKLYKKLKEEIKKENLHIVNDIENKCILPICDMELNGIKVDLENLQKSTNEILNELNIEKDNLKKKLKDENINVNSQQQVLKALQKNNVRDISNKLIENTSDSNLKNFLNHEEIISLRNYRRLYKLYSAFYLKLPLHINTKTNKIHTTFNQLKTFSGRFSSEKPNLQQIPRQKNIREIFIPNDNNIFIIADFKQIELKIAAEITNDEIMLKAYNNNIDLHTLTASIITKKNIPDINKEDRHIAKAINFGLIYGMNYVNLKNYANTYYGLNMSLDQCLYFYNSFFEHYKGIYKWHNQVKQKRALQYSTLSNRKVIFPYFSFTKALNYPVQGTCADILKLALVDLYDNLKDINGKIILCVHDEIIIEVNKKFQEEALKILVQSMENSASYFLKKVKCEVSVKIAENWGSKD
compound,measurement,setting,value
O=C(Nc1nnc(-c2ccno2)o1)c1ccc2c(c1)OCO2 [KU0171343],DNA Pol,"186 hits, value of the hit list (primary screen); unit not given; 90 min, 10 µM",40
same,% inhibition Apo pol 10',DRC-1; 10'; concentration 2.5,0.3504%
same,% inhibition Apo pol 10',DRC-1; 10'; concentration 5,4.323%
same,% inhibition Apo pol 10',DRC-1; 10'; concentration 10,19.3402%
same,% inhibition Apo pol 10',DRC-1; 10'; concentration 20,32.3938%
same,% inhibition Apo pol 10',DRC-1; 10'; concentration 40,61.4938%
same,% inhibition Apo pol 10',DRC-1; 10'; concentration 80,79.918%
same,% inhibition Apol 90',DRC-1; 90'; concentration 2.5,-7.247%
same,% inhibition Apol 90',DRC-1; 90'; concentration 5,-7.662%
same,% inhibition Apol 90',DRC-1; 90'; concentration 10,0.8301%
same,% inhibition Apol 90',DRC-1; 90'; concentration 20,8.774%
same,% inhibition Apol 90',DRC-1; 90'; concentration 40,33.5392%
same,% inhibition Apol 90',DRC-1; 90'; concentration 80,60.7945%
same,% inhibition apPOL 180',DRC-1; 180'; concentration 2.5,-15.466%
same,% inhibition apPOL 180',DRC-1; 180'; concentration 5,-16.6627%
same,% inhibition apPOL 180',DRC-1; 180'; concentration 10,-10.0119%
same,% inhibition apPOL 180',DRC-1; 180'; concentration 20,-7.297%
same,% inhibition apPOL 180',DRC-1; 180'; concentration 40,11.9639%
same,% inhibition apPOL 180',DRC-1; 180'; concentration 80,37.6873%
same,% inhibition Apo pol 5',"DRC-2, 5', concentration 2.5",4.65%
same,% inhibition Apo pol 5',"DRC-2, 5', concentration 5",2.76%
same,% inhibition Apo pol 5',"DRC-2, 5', concentration 10",18%
same,% inhibition Apo pol 5',"DRC-2, 5', concentration 20",19%
same,% inhibition Apo pol 5',"DRC-2, 5', concentration 40",33%
same,% inhibition Apo pol 5',"DRC-2, 5', concentration 80",26%
same,% inhibition Apol 40',"DRC-2, 40', concentration 2.5",-1.21%
same,% inhibition Apol 40',"DRC-2, 40', concentration 5",-4.25%
same,% inhibition Apol 40',"DRC-2, 40', concentration 10",14%
same,% inhibition Apol 40',"DRC-2, 40', concentration 20",14%
same,% inhibition Apol 40',"DRC-2, 40', concentration 40",39%
same,% inhibition Apol 40',"DRC-2, 40', concentration 80",51%
same,% inhibition ApPOL 90',"DRC-2, 90', concentration 2.5",-3.2%
same,% inhibition ApPOL 90',"DRC-2, 90', concentration 5",-8%
same,% inhibition ApPOL 90',"DRC-2, 90', concentration 10",11%
same,% inhibition ApPOL 90',"DRC-2, 90', concentration 20",10%
same,% inhibition ApPOL 90',"DRC-2, 90', concentration 40",36%
same,% inhibition ApPOL 90',"DRC-2, 90', concentration 80",55%
same,% inhibition apPOL 180',"DRC-2, 180', concentration 2.5",-8%
same,% inhibition apPOL 180',"DRC-2, 180', concentration 5",-14%
same,% inhibition apPOL 180',"DRC-2, 180', concentration 10",1.55%
same,% inhibition apPOL 180',"DRC-2, 180', concentration 20",0.368%
same,% inhibition apPOL 180',"DRC-2, 180', concentration 40",25%
same,% inhibition apPOL 180',"DRC-2, 180', concentration 80",51%
same,% inhibition Apol 40',DRC-2; 40'; concentration 10,14%
same,% inhibition Apol 40',DRC-2; 40'; concentration 20,14%
same,% inhibition Apol 40',DRC-2; 40'; concentration 80,51%
same,% inhibition ApPOL 90',DRC-2; 90'; concentration 5,-8%
same,% inhibition apPOL 180',DRC-2; 180'; concentration 2.5,-8%
same,% inhibition apPOL 180',DRC-2; 180'; concentration 80,51%
same,DNA Pol,"primary screen value, 'DNA Pol' only; 90 min, 10 µM",40
COCCN(CCOC)Cc1c(O)ccc2c1OC(=Cc1cc(Br)ccc1OC)C2=O [KU0198471],DNA Pol,"'DNA Pol' of the 186 hits list (primary screen result); unit not given; 90 min, 10 µM",63
same,% inhibition Apo pol 10',DRC-1; 10'; concentration 2.5,-2.842%
same,% inhibition Apo pol 10',DRC-1; 10'; concentration 5,2.517%
same,% inhibition Apo pol 10',DRC-1; 10'; concentration 10,15.0312%
same,% inhibition Apo pol 10',DRC-1; 10'; concentration 20,43.5523%
same,% inhibition Apo pol 10',DRC-1; 10'; concentration 40,79.9378%
same,% inhibition Apo pol 10',DRC-1; 10'; concentration 80,100.142%
same,% inhibition Apol 90',DRC-1; 90'; concentration 2.5,0.2446%
same,% inhibition Apol 90',DRC-1; 90'; concentration 5,8.305%
same,% inhibition Apol 90',DRC-1; 90'; concentration 10,20.0345%
same,% inhibition Apol 90',DRC-1; 90'; concentration 20,57.0182%
same,% inhibition Apol 90',DRC-1; 90'; concentration 40,88.9313%
same,% inhibition Apol 90',DRC-1; 90'; concentration 80,100.102%
same,% inhibition apPOL 180',DRC-1; 180'; concentration 2.5,3.8606%
same,% inhibition apPOL 180',DRC-1; 180'; concentration 5,14.5947%
same,% inhibition apPOL 180',DRC-1; 180'; concentration 10,28.8657%
same,% inhibition apPOL 180',DRC-1; 180'; concentration 20,74.003%
same,% inhibition apPOL 180',DRC-1; 180'; concentration 40,99.2826%
same,% inhibition apPOL 180',DRC-1; 180'; concentration 80,101.453%
same,% inhibition Apo pol 5',"DRC-2, 5', concentration 2.5 (unit not given)",10%
same,% inhibition Apol 40',"DRC-2, 40', concentration 2.5 (unit not given)",10%
same,% inhibition Apo pol 5',DRC-2; 5'; concentration 2.5,10%
same,% inhibition Apo pol 5',DRC-2; 5'; concentration 5,10%
same,% inhibition Apo pol 5',DRC-2; 5'; concentration 5 (unit not given),10%
same,% inhibition Apo pol 5',DRC-2; 5'; concentration 10,33%
same,% inhibition Apo pol 5',DRC-2; 5'; concentration 20,48%
same,% inhibition Apo pol 5',DRC-2; 5'; concentration 40,59%
same,% inhibition Apo pol 5',DRC-2; 5'; concentration 80,60%
same,% inhibition Apol 40',DRC-2; 40'; concentration 2.5,10%
same,% inhibition Apol 40',DRC-2; 40'; concentration 5,6%
same,% inhibition Apol 40',DRC-2; 40'; concentration 10,36%
same,% inhibition Apol 40',DRC-2; 40'; concentration 20,53%
same,% inhibition Apol 40',DRC-2; 40'; concentration 40,73%
same,% inhibition Apol 40',DRC-2; 40'; concentration 80,79%
same,% inhibition ApPOL 90',DRC-2; 90'; concentration 2.5,10%
same,% inhibition ApPOL 90',DRC-2; 90'; concentration 2.5 (unit not given),10%
same,% inhibition ApPOL 90',DRC-2; 90'; concentration 5,-0.305%
same,% inhibition ApPOL 90',DRC-2; 90'; concentration 10,34%
same,% inhibition ApPOL 90',DRC-2; 90'; concentration 20,52%
same,% inhibition ApPOL 90',DRC-2; 90'; concentration 40,75%
same,% inhibition ApPOL 90',DRC-2; 90'; concentration 80,82%
same,% inhibition apPOL 180',DRC-2; 180'; concentration 2.5,4.6%
same,% inhibition apPOL 180',DRC-2; 180'; concentration 5,-68%
same,% inhibition apPOL 180',DRC-2; 180'; concentration 10,25%
same,% inhibition apPOL 180',DRC-2; 180'; concentration 20,41%
same,% inhibition apPOL 180',DRC-2; 180'; concentration 40,72%
same,% inhibition apPOL 180',DRC-2; 180'; concentration 80,85%
same,DNA Pol,"primary screen value of the library well; unit not given; 90 min, 10 µM",63
